The values that follow come from PubChem BioAssay (NCI).

What all share (assay): inhibition of tumour cell growth, NCI panel, 48 h
Assay [1] relates to DU-145 prostate.
In assay [2] the test system is HT29 colon.
Assay [3] relates to SF-539 CNS.
The test system of assay [4] is HCT-116 colon.
Assay [5] has as its system BT-549 breast.
In assay [6] the test system is SK-MEL-28 melanoma.
Assay [7] concerns SN12C renal.
Assay [8] concerns HS 578T breast.
For assay [9], the system named is MALME-3M melanoma.
For assay [10], the system named is HOP-92 NSCLC.
The test system of assay [11] is UACC-62 melanoma.

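In this assay, cells in 96-well plates receive the compound at five concentrations for 48 hours. Endpoints are linearly interpolated between the surrounding concentrations. Definition used: TGI = concentration required for complete inhibition of growth.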

On to `O=C(N/N=C(/COc1ccc(Cl)cc1)N=Cc1ccncc1)c1ccncc1`, for which the TGI in assay [1], in assay [2], in assay [3], in [4], in assay [5] and in [6] was greater than 100 µM in each case. Further, the TGI in assay [7], in assay [8], in [9], in assay [10] and in [11] was greater than 100 µM throughout.
For `COC(=O)C1SC(SC)=NC12c1ccccc1Nc1ccccc12` (centres undefined), the TGI in assay [1] was greater than 100 µM; in assay [2] it was greater than 100 µM; in assay [3], 35.4 µM; in assay [4], greater than 100 µM; in [5], 58.6 µM; in assay [6], 48.5 µM. In addition, the TGI in assay [7] was greater than 100 µM; in [8], greater than 100 µM; in [9] it was 65.1 µM; in [10], 69.8 µM; in assay [11], 34 µM.
Take `NC(N)=N/N=C/c1c(-c2ccc(N)cc2)nc2sccn12`: the TGI in assay [1] was 35.5 µM; in [2], 56.8 µM; in assay [3], 63.9 µM; in assay [4] it was 59.2 µM; in [5] it was greater than 100 µM; in [6] it was greater than 100 µM. Also, the TGI is 48.7 µM in [7]; greater than 100 µM in assay [8]; greater than 100 µM in [9]; greater than 100 µM in assay [10]; greater than 100 µM in [11].
Turning to `Cc1ccc(N=NC(=Nc2ccccc2)c2ccc(N(CCC#N)CCC#N)cc2)cc1`, the TGI in [1] was greater than 100 µM; in assay [2] it was greater than 100 µM; in assay [3], greater than 100 µM; in assay [4], greater than 100 µM; in assay [5] it was 47.3 µM; in assay [6], greater than 100 µM. The TGI was greater than 100 µM in assay [7], greater than 100 µM in [8], 64.8 µM in assay [10] and 58.9 µM in [11].
Regarding `CCCCCCc1cc2cc(-c3csc(CC#N)n3)c(=O)oc2cc1O`, the TGI in assay [1] was greater than 100 µM; in [2] it was greater than 100 µM; in assay [3], greater than 64.5 µM; in assay [4], greater than 100 µM; in assay [5], greater than 60.2 µM; in assay [6] it was greater than 100 µM. Besides, the TGI in [7] is greater than 100 µM; in assay [8], greater than 100 µM; in [9] it was greater than 100 µM; in [10] it was 69 µM; in assay [11] it was greater than 100 µM.
`Cc1cn2c(/C=N/N=C(N)N)c(-c3cccc([N+](=O)[O-])c3)nc2s1`: the TGI in [1] is 3.27 µM; in assay [2], 1.86 µM; in [3], 4.05 µM; in assay [4], greater than 100 µM; in assay [5] it was 3.3 µM; in [6], 2.55 µM. The TGI came out at 3.08 µM in [7]; 5.19 µM in assay [8]; 3.94 µM in assay [9]; 3.35 µM in assay [10]; 3.07 µM in assay [11].
On to `CC(C)(C)N1CSC(=S)N(Cc2ccco2)C1`, for which the TGI was found to be 15.5 µM in assay [1]; 13.8 µM in assay [2]; 2.62 µM in assay [3]; 16.7 µM in assay [4]; 9.62 µM in assay [5]; 10.8 µM in assay [6]. In addition, the TGI in assay [7] was 16.7 µM; in assay [8], 26.1 µM; in assay [9] it was 16.6 µM; in [10], 12.1 µM; in [11], 20 µM.
On to `CCOC(=O)C(SCCO)C(C(=O)OCC)n1cnc2c(=O)[nH]c(NC(C)=O)nc21` (centres undefined), for which the TGI in [1], in assay [2], in assay [3], in [4], in assay [5] and in assay [6] was greater than 100 µM throughout. Besides, the TGI in assay [7], in [8], in assay [9], in [10] and in [11] was greater than 100 µM in each case.
On to `O=C1CSC(c2ccc(Cl)cc2)N1c1ccc(Oc2ccc(Cl)cc2)c(Cl)c1` (centres undefined), for which the TGI was 27.2 µM in assay [1]; 36.3 µM in assay [2]; 30.4 µM in assay [3]; 29.8 µM in assay [4]; 29 µM in assay [5]; 35.4 µM in assay [6]. Also, the TGI in assay [7] stood at 38.6 µM; in [8] it was 27.5 µM; in [9] it was 21.9 µM; in assay [10] it was 30.3 µM; in [11] it was 28.8 µM.
As to `COc1cc(C2c3cc4c(cc3OC(N3CCOCC3)C2C)OCO4)ccc1O` (centres undefined), the TGI in assay [1] is greater than 100 µM; in assay [2], greater than 100 µM; in [3], 35.6 µM; in assay [4] it was 50.4 µM; in assay [5], greater than 100 µM; in [6] it was greater than 100 µM. Further, the TGI in [7] was greater than 100 µM; in [8] it was 41.9 µM; in assay [9], greater than 100 µM; in assay [10], greater than 100 µM; in assay [11], greater than 100 µM.
With `CC1(C)N=[N+]([O-])C1(C)C`, the TGI in assay [1], in [2], in assay [3], in assay [4], in [5] and in [6] was greater than 100 µM each time. Further, the TGI in assay [7], in [8], in [9] and in [11] was greater than 100 µM each time.
In the case of `Nc1nc(SCCc2ccccc2)c2[nH]cnc2n1`, the TGI in assay [1], in assay [2], in assay [4], in assay [5], in [6] and in assay [7] was greater than 100 µM throughout. Further, the TGI in assay [8], in [9], in [10] and in assay [11] was greater than 100 µM in each case.
